From patent publication US9914755B2, “Cyclosporin derivatives wherein the MeBmt sidechain has been cyclized” (Allergan, Inc., priority 2015, dated 2018) come the findings set out here.

The target of data set [1] is T1, Human recombinant cyclophilin A (CypA) (Homo sapiens, UniProt P62937).
T1 construct: purchased Sigma C3805
As to the kind of experiment: Protease-free PPIase assay, cyclophilin A. To be noted: human recombinant CypA, 10 °C, SUC-AAPF-pNA substrate; read-out: CypA Protease-free PPIase Assay Ki. In kind it is biochemical. The protocol: (§1) Protease-Free PPIase Assay The protease-free PPIase assay measures the rate of cis to trans conversion of a peptide substrate catalyzed by the enzyme cyclophilin A or D. Addition of a cyclophilin inhibitor (e.g., a test compound) slows the catalyzed rate and a Ki value is obtained. 35 mM HEPES pH 7.8, filtered through a 0.2 μm filter. 50 μM DTT was added prior to use each day and then the buffer was stored on ice. […] Human recombinant 6-His tagged cyclophilin D (CypD), prepared by the University of Edinburgh, was used to generate CypD inhibition data. Succinimide-[…]-nitroanilide (SUC-AAPF-pNA) (from Bachem AG, L-1400), 20 mg/ml prepared in 0.5 M LiCl in trifluoroethanol. All readings were taken with an Agilent 8453 Spectrophotometer which consisted of a cuvette holder, stirrer and chiller to maintain a stirred cuvette temperature of 10.0±0.1° C. The temperature was monitored by the use of temperature probe. […] The inhibitor was diluted in 100% DMSO, and then added to the assay to a maximum final concentration of 0.5% DMSO in the assay. […] The absorbance was measured at 330 nm for 300 s or 500 s for blank runs (NOTE: the substrate was added in one quick injection and the measurements started immediately to minimize mixing errors). A first order rate equation was fitted to the absorbance data, for each concentration of inhibitor, to obtain the rate constant (the first 10 to 15 seconds were excluded, as mixing causes errors in this portion of the curve). The catalytic rate was calculated from the enzymatic rate constant minus the background rate constant. An exponential curve was generated using the catalytic rate constants versus the inhibitor concentration to obtain the Ki value for the inhibitor. The Ki value is indicative of the binding affinity between the test compound and cyclophilin A.

Data set [2] deals with T2, Human recombinant 6-His tagged cyclophilin D (CypD) (Homo sapiens, UniProt P30405).
T2 construct: 6-His
Nature of the data set: Protease-free PPIase assay, cyclophilin D. It counts as biochemical. To be noted: human recombinant 6-His CypD, 10 °C, SUC-AAPF-pNA substrate; read-out: CypD Protease-free PPIase Assay Ki. The protocol: as §1

Another data set addresses T3, calcineurin (Homo sapiens, UniProt P62937+P63098+Q08209).
T3 construct: purchased Enzo Life Sciences BML-AK804
As to the kind of experiment: Calcineurin Phosphatase (CaN) Assay. In kind it is biochemical. To be noted: in the presence of CypA, 1:1 complex of inhibitor with CypA. From the text:
Calcineurin Phosphatase (CaN) Assay
The calcineurin phosphatase assay is a means for estimating the immunosuppressive potential of a test compound. Calcineurin is a serine-threonine protein phosphatase that on activation dephosphorylates members of the nuclear factor of activated T cells (NFAT), which are important in T lymphocyte activation.
To investigate the immunosuppressive potential of exemplary compounds of Formula I, which are cyclosporin analogs, their ability to inhibit calcineurin activity was measured in the presence and absence of CypA.
The CaN assay kit used is based on a colorimetric assay for measuring calcineurin phosphatase activity, and it is commercially available (Enzo Life Sciences and Calbiochem). Calmodulin is also required for calcineurin activity, and RII phosphopeptide is used as an efficient peptide substrate for calcineurin. […] The detection of free phosphate released is based on the classic Malachite green assay.
Enzo Life Sciences CaN Assay Kit: BML-AK804
For samples ‘without CypA’, a 4-point dilution series of the inhibitor was prepared in duplicate to obtain a final assay concentration of 10, 1, 0.1 and 0.01 μM. For samples ‘with CypA’, a 7-point dilution series was prepared to obtain a 1:1 complex of the inhibitor with CypA; the inhibitor and CypA final assay concentrations of 10, 3.33, 1.11, 0.37, 0.12, 0.04, 0.014 μM were prepared.
using the half area 96 well plates supplied with the kit, 10 μl UPW was added to duplicate wells to provide the non-inhibited control. 10 μl of the inhibitor or the inhibitor/CypA complex was added to the appropriate sample wells. 25 μl of the 2× assay buffer with calmodulin (CaM) was added to all wells, then 5 μl of calcineurin phosphatase (CaN) was added to all wells (40 U per well final concentration) except duplicate ‘no calcineurin blank’ wells to which 5 μL 1× assay buffer was added. The assay plate was placed in an oven at 30° C. for 15 minutes to equilibrate to the reaction temperature. The reaction was started by the addition of 10 μl RII-peptide (0.15 mM final concentration). The reaction was allowed to proceed at 30° C. for a time period in which the reaction is linear for about 60 minutes. The reaction was then terminated by adding 100 μl of the Malachite Green reagent. The color was allowed to develop for 15-30 minutes at room temperature before the absorbance at 620 nm was measured using a plate reader (Molecular Devices—SpectraMax M5). The data were analyzed by subtracting ‘no calcineurin blank’ from all the absorbance readings and plotting the background corrected absorbances against Log10 inhibitor concentration. A sigmoidal-dose response curve was fitted to the data using GraphPad Prism Software.
It exerts its immunosuppressive activity by binding to CypA to form a complex, which then binds to calcineurin and thereby inhibits calcineurin activity.

A short description of the next data set: physchem. To be noted: 25 °C, pH 7.4, aqueous buffer, kinetic from dmso stock.

Converted amounts (≈) assume the structure as drawn. Starred links: 1 amine or outer side, 2 acyl side, 3 side chain; linkers in the order of their positions; H or OH if unused. Non-standard residues stand in square brackets, D forms with d. Residues, ends and D or L forms follow the SMILES beside them. X1 = C[C@@H]1CCO[C@H]1[C@H](C(=O)[*:2])N(C)[*:1]; d(aThr) = C[C@@H](O)[C@@H](N)C(=O)O; NMeL = CN[C@@H](CC(C)C)C(=O)O; dNMeL = CN[C@H](CC(C)C)C(=O)O; dNMeV = CN[C@@H](C(=O)O)C(C)C; dNMeA = CN[C@H](C)C(=O)O Where only a bound is given, the exact number is not on record here.

T1 sequence (P62937 whole entry): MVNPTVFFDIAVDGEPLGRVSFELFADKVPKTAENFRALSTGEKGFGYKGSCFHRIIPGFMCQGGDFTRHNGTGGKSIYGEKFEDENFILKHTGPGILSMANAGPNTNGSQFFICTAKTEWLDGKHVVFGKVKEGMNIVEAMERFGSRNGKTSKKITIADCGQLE
T2 sequence (P30405 30-207): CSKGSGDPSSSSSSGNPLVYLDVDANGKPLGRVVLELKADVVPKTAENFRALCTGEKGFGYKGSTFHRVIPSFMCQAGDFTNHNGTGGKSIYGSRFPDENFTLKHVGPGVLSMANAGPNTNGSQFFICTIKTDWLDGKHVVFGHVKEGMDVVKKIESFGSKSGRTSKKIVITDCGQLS
Description for physchem: The aqueous solubility of a compound of Formula I in buffer (pH 7.8) was measured by recording the onset of precipitation of the compound as a function of increasing concentration. The onset of precipitation, if it occurred, was detected by an increase in absorbance at 650 nm.
Stock solutions of Control and Test Compounds: 10 mM in 100% DMSO.
10 mM stock solutions of control and test compounds were prepared in 100% DMSO.
Assay buffer (247.5 μl) was placed into a flat bottomed transparent 96-well plate. For blank samples, DMSO (2.5 μl) was added. For test and control samples, 2.5 μl of the appropriate DMSO dilution stocks were added to the appropriate well. All test and control compounds were performed in triplicate.
The plates were sealed with adhesive plate seal and shaken at 250 rpm at 25° C. for 18 h on a plate shaker. After incubation, the plate seals were taken off and any bubbles observed in wells removed. The plates were read on a SpectraMaxM5 with a 5 s pre-shake at 650 nm.
Data files were transferred to the appropriate worksheet and the solubility range of the compounds was calculated from the data.

As for `CC[C@@H]1C(=O)N(C)[C@@H](CC(C)C)C(=O)N[C@H](C(C)C)C(=O)N(C)[C@H](CC(C)C)C(=O)N[C@H](C)C(=O)N[C@@H](C)C(=O)N(C)[C@H](CC(C)C)C(=O)N(C)[C@H](CC(C)C)C(=O)N(C)[C@H](C(C)C)C(=O)N(C)[C@H]([C@@H]2OCC[C@H]2C)C(=O)N[C@H](CC)C(=O)N1C` [Compound 1, [(2S)-2-(methylamino)-2-[(2R,3R)-3-methyltetrahydrofuran-2-yl]acetic acid]^1 [(R)-ethyl-Sar]^3 cyclosporin A], the Ki in data set [1] worked out at 81 nM; in data set [2], 9.7 nM. The IC50 on calcineurin is greater than 10000 nM. This molecule yielded a solubility at 18 h in the data set “physchem” of 75 µM (≈ 90.2 µg/mL).
As for `CCC[C@@H]1C(=O)N(C)[C@@H](CC(C)C)C(=O)N[C@H](C(C)C)C(=O)N(C)[C@H](CC(C)C)C(=O)N[C@H](C)C(=O)N[C@@H](C)C(=O)N(C)[C@H](CC(C)C)C(=O)N(C)[C@H](CC(C)C)C(=O)N(C)[C@H](C(C)C)C(=O)N(C)[C@H]([C@@H]2OCC[C@H]2C)C(=O)N[C@H](CC)C(=O)N1C` [Compound 2, [(2S)-2-(methylamino)-2-[(2R,3R)-3-methyltetrahydrofuran-2-yl]acetic acid]^1 [(R)-propyl-Sar]^3 cyclosporin A], the Ki in data set [1] is 237 nM; in data set [2], 39 nM. For the same molecule, at calcineurin, the IC50 was greater than 10000 nM. For the same molecule, the solubility at 18 h in “physchem” was 50 µM (≈ 60.8 µg/mL).
Turning to `CC[C@H]1NC(=O)[C@@H]([C@@H]2OCC[C@H]2C)N(C)C(=O)[C@@H](C(C)C)N(C)C(=O)[C@@H](CC(C)C)N(C)C(=O)[C@@H](CC(C)C)N(C)C(=O)[C@H](C)NC(=O)[C@@H](C)NC(=O)[C@@H](CC(C)C)N(C)C(=O)[C@@H](C(C)C)NC(=O)[C@H](CC(C)C)N(C)C(=O)CN(C)C1=O` [Compound 4, [(2S)-2-(methylamino)-2-[(2R,3R)-3-methyltetrahydrofuran-2-yl]acetic acid]^1 cyclosporin A], the Ki in data set [1] amounted to 509 nM; in data set [2], 920 nM. The IC50 on calcineurin is greater than 10000 nM.
With `CC(C)C[C@@H]1C(=O)N(C)[C@H](CC(C)C)C(=O)N(C)[C@H](C(C)C)C(=O)N(C)[C@H]([C@@H]2OCC[C@H]2C)C(=O)N[C@H]([C@@H](C)O)C(=O)N(C)[C@H](C)C(=O)N(C)[C@@H](CC(C)C)C(=O)N[C@H](C(C)C)C(=O)N(C)[C@H](CC(C)C)C(=O)N[C@H](C)C(=O)N[C@@H](C)C(=O)N1C` [Compound 11, [(2S)-2-(methylamino)-2-[(2R,3R)-3-methyltetrahydrofuran-2-yl]acetic acid]^1 [(R)-methyl-Sar]^3 cyclosporin C] (cyclo(A[dNMeL][dNMeL][dNMeV][X1][d(aThr)][dNMeA][NMeL][dV][dNMeL][dA])), the Ki in data set [1] stood at 270 nM; in data set [2], 18 nM. In addition, the IC50 on calcineurin is greater than 10000 nM.
For `CC[C@H]1NC(=O)[C@@H]([C@@H]2OC(O)C[C@H]2C)N(C)C(=O)[C@@H](C(C)C)N(C)C(=O)[C@@H](CC(C)C)N(C)C(=O)[C@@H](CC(C)C)N(C)C(=O)[C@H](C)NC(=O)[C@@H](C)NC(=O)[C@@H](CC(C)C)N(C)C(=O)[C@@H](C(C)C)NC(=O)[C@H](CC(C)C)N(C)C(=O)[C@@H](C)N(C)C1=O` (stereo partly drawn) [Compound 12, [(2R)-2-[(2R,3R)-5-hydroxy-3-methyl-tetrahydrofuran-2-yl]-2-(methylamino)acetic acid]^1[(R)-methyl-Sar]^3 cyclosporin A], the figures for the Ki in data set [1] and in data set [2] were 49 nM and 12 nM, respectively. The IC50 on calcineurin is greater than 10000 nM.
Consider `CC(C)C[C@@H]1C(=O)N(C)[C@H](CC(C)C)C(=O)N(C)[C@H](C(C)C)C(=O)N(C)[C@H]([C@@H]2OC(O)C[C@H]2C)C(=O)N[C@H](C(C)C)C(=O)N(C)CC(=O)N(C)[C@@H](CC(C)C)C(=O)N[C@H](C(C)C)C(=O)N(C)[C@H](CC(C)C)C(=O)N[C@H](C)C(=O)N[C@@H](C)C(=O)N1C` (stereo partly drawn) [Compound 13, [(2S)-2-[(2R,3R)-5-Hydroxy-3-methyl-tetrahydrofuran-2-yl]-2-(methylamino)acetic acid]^1 cyclosporin D], for which the Ki in data set [1] was determined as 414 nM; in data set [2] it was 840 nM. Further, the IC50 on calcineurin was greater than 10000 nM.
In the same order, the values of `CC[C@H]1NC(=O)[C@@H]([C@@H]2OCCC[C@H]2C)N(C)C(=O)[C@@H](C(C)C)N(C)C(=O)[C@@H](CC(C)C)N(C)C(=O)[C@@H](CC(C)C)N(C)C(=O)[C@H](C)NC(=O)[C@@H](C)NC(=O)[C@@H](CC(C)C)N(C)C(=O)[C@@H](C(C)C)NC(=O)[C@H](CC(C)C)N(C)C(=O)[C@@H](C)N(C)C1=O` [Compound 15, [(2S)-2-(methylamino)-2-[(2R,3R)-3-methyltetrahydropyran-2-yl]acetic acid]^1 [(R)-methyl-Sar]^3 cyclosporin A] are 38 nM, 46 nM and 5290 nM.
In the same order, the values of `CC[C@H]1NC(=O)[C@@H]([C@@H]2OCCCC[C@H]2C)N(C)C(=O)[C@@H](C(C)C)N(C)C(=O)[C@@H](CC(C)C)N(C)C(=O)[C@@H](CC(C)C)N(C)C(=O)[C@H](C)NC(=O)[C@@H](C)NC(=O)[C@@H](CC(C)C)N(C)C(=O)[C@@H](C(C)C)NC(=O)[C@H](CC(C)C)N(C)C(=O)CN(C)C1=O` [Compound 16, [(2S)-2-(methylamino)-2-[(2R,3R)-3-methyloxepan-2-yl]acetic acid]^1 cyclosporin A] are 386 nM, 560 nM and 6670 nM.
For the molecule `CC[C@H]1NC(=O)[C@@H]([C@@H]2OCCCC[C@H]2C)N(C)C(=O)[C@@H](C(C)C)N(C)C(=O)[C@@H](CC(C)C)N(C)C(=O)[C@@H](CC(C)C)N(C)C(=O)[C@H](C)NC(=O)[C@@H](C)NC(=O)[C@@H](CC(C)C)N(C)C(=O)[C@@H](C(C)C)NC(=O)[C@H](CC(C)C)N(C)C(=O)[C@@H](C)N(C)C1=O` [Compound 17, [(2S)-2-(methylamino)-2-[(2R,3R)-3-methyloxepan-2-yl]acetic acid]^1 [(R)-methyl-Sar]^3 cyclosporin A], the Ki was determined as 105 nM in data set [1] and 85 nM in data set [2]. Besides, the IC50 at calcineurin stood at 7740 nM.
Regarding `CC[C@H]1NC(=O)[C@@H]([C@@H]2OCN(C)C[C@H]2C)N(C)C(=O)[C@@H](C(C)C)N(C)C(=O)[C@@H](CC(C)C)N(C)C(=O)[C@@H](CC(C)C)N(C)C(=O)[C@H](C)NC(=O)[C@@H](C)NC(=O)[C@@H](CC(C)C)N(C)C(=O)[C@@H](C(C)C)NC(=O)[C@H](CC(C)C)N(C)C(=O)CN(C)C1=O` [Compound 23, [(2R)-2-[(5R,6R)-3,5-dimethyl-1,3-oxazinan-6-yl]-2-(methylamino)acetic acid]^1 cyclosporin A], the Ki came to 754 nM in data set [1] and 280 nM in data set [2]. The IC50 at calcineurin was greater than 10000 nM.
Turning to “[(2R)-2-[(5R,6R)-3,5-dimethyl-2-oxo-1,3-oxazinan-6-yl]-2-(methylamino)acetic acid]^1 cyclosporin A [Compound 21]”, the Ki in data set [1] was found to be 304 nM; in data set [2] it was 42 nM. Besides, the IC50 at calcineurin turned out to be 8160 nM.
